Experimental data from article PMC8637440, “Structural Modifications Yield Novel Insights Into the Intriguing Pharmacodynamic Potential of Anti-inflammatory Nitro-Fatty Acids” (Frontiers in Pharmacology, 2021).

How the values were obtained:
r5LO-wt = target: T1, r5LO-wt (Homo sapiens, UniProt P09917); assay: Recombinant 5-LO activity assay (5-HETE); assay type: biochemical
T1 sequence (P09917 1-674): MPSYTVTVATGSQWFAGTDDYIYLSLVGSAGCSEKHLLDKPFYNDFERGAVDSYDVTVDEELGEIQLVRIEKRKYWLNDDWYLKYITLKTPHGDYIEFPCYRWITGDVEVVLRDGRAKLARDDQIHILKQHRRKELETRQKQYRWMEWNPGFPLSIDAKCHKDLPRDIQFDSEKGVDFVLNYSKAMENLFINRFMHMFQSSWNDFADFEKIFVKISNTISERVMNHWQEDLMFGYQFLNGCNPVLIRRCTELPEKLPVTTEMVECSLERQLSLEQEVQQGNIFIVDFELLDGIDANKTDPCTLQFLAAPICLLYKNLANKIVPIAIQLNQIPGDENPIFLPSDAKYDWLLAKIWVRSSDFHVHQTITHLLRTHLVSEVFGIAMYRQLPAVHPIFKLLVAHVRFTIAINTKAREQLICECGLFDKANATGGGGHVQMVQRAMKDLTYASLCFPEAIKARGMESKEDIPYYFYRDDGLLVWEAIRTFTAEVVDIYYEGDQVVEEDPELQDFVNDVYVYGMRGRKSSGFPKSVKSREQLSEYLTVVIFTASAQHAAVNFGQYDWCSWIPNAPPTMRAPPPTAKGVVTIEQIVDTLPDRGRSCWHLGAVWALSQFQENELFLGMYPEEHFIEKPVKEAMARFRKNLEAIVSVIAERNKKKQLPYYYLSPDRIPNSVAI
Method: 5-LO activity in intact cells was assayed by measuring LTB4 (leukotriene B4) and 5-HETE (5-hydroxyeicosatetraenoic acid) levels in the PMNL supernatants. Since PMNL preparations (purity >95%) contain eosinophils expressing 15-LO-1 as well as platelets, we also analyzed the effects of NFA on the concomitant formation of […] and 12-(S)-HETE. […] Recombinant 5-LO enzyme activity was assessed by the determination of 5-HETE levels representing a direct product assay. In the cell-based LO activity assays, 5 × 10^6 cells per ml PBS/glucose were transferred to 5 ml glass tubes containing 1 mM CaCl2 and stored on ice. […] Subsequently, the cells were stimulated with calcium ionophore A23187 (2.5 µM) and arachidonic acid (AA, 20 µM) for an additional 10 min at 37°C. Recombinant 5-LO activity assays were carried out using 3 µg r5LO-wt enzyme. The enzyme was diluted in PBS/EDTA/ATP, transferred into 5-ml glass tubes, and stored on ice. […] The samples were then pre-heated at 37°C in a water bath and subsequently stimulated with 1 mM CaCl2 and 20 µM AA for 10 min at 37°C. The reaction was stopped by placing the glass tubes on ice. The supernatants were transferred to 1.5 ml reaction tubes and stored at −80°C before LC-MS (liquid chromatography and mass spectrometry) analysis of LTB4 and HETEs as described in 2.6 at the Institute of Pharmacology, Goethe University, University Hospital, Germany.
The lipid mediators LTB4, hydroxyeicosatetraenoic acids, 5(S)-HETE, 12(S)-HETE, 15(S)-HETE and 20-HETE were analyzed using liquid chromatography tandem-mass spectroscopy (LC-MS/MS). The LC-MS/MS system consisted of a 5500 QTrap mass spectrometer (Sciex, Darmstadt, Germany), operating in negative ESI mode, an Agilent 1200 HPLC system (Agilent, Waldbronn, Germany) and an HTC Pal autosampler (Chromtech, Idstein, Germany).
Suppl. Figure 3: Inhibition of 5-LO derived 5-HETE production by NFA with (A) different carbon chain lengths and (B) different Michael acceptor positions using the r5LO-wt assay. r5LO-wt (3 µg) in PBS/EDTA/ATP buffer was preincubated with the compounds or the vehicle control DMSO (0.1%) for 15 min at 4°C, preheated at 37°C for 30 sec, and subsequently stimulated with 1 mM CaCl 2 and 20 µM AA for another 10 min at 37°C.
5-HETE activity was analyzed by LC-MS. Data are presented as the percent of the control mean ± SD, n = 3–6. AA , arachidonic acid; ATP, adenosine triphosphate; DMSO, dimethyl sulfoxide; EDTA, ethylenediaminetetraacetate; HETE, hydroxyeicosatetraenoic acid; NFA, nitro-fatty acids; PBS, phosphate-buffered saline . […]

PMNL = assay: WST-1 viability assay in PMNL; assay type: cell-based, human; conditions: 20 µM, 2 h (data not shown)
Method: Cell viability was analyzed with the WST-1 assay based on the cleavage of the stable tetrazolium salt WST-1 by the mitochondrial reductase system. Cells were seeded in the appropriate densities in a clear 96-well plate and settled overnight at 37°C in 5% CO2. […] Cell viability was analyzed by adding 10 µl WST-1 solution (Roche, Basel, Switzerland) and subsequently incubating the cells at 37°C for another 30–40 min. Absorbance was measured at 450 nm with a control wavelength at 620 nm using a plate reader.
5-LO, the key enzyme in leukotriene biosynthesis, catalyzes the first steps in leukotriene formation from AA. Oxidation of AA by 5-LO leads to the formation of 5-hydroperoxyeicosatetraenoic acid (5-HPETE), which can further be converted to LTA4 or reduced to 5-HETE. In the next step, LTA4 is hydrolyzed by LTA4 hydrolase to produce LTB4. Moreover, 12- and 15-LO catalyze the formation of 12- and 15-H(P)ETE [12- and 15-hydro(per)oxyeicosatetraenoic acid]. Nitroalkylation of 5-LO cysteines 416 and 418 by NFA leads to enzyme inhibition and beneficial anti-inflammatory effects, whereas no impact has been observed on 12- and 15-LO so far ([Awwad et al., 2014]). 5-LO product formation of purified PMNL was triggered by incubation with 2.5 µM of the calcium ionophore A23187 in the presence of 20 µM AA. […] Shifting the nitro group from position 9 to 10, or rather, towards position 11 (18.11.11), led to a decreased impact on 15-LO product formation (Table 3). […] Therefore, 5-LO product formation of purified PMNL after treatment with A23187 was determined in absence of AA which should strongly increase the 5-LO-inhibitory potency of competitive inhibitors. However, IC50 values were similar under these conditions strengthening the hypothesis of NFA as presumably non-competitive 5-LO inhibitors. Using a WST-1 viability assay we assessed possible cytotoxic effects of the strongest 5-LO-inhibitory NFA derivatives in PMNL including 18.4.4, 18.5.5, 18.6.6, 18.7.7, 18.8.8, 18.8.9, 18.9.9, 18.9.10, 18.10.10, 20.9.9, and 22.9.9.

[1] = 3 µg r5LO-wt, 15 min on ice, 1 mM CaCl2 + 20 µM AA, n.i. = no inhibition observed

| SMILES | IC50 (r5LO-wt; [1]) [nM] | cytotoxic effects in PMNL (WST-1 viability) (PMNL) | r5LO-wt 5-HETE IC50 (r5LO-wt; [1]) | effect on product formation by recombinant 5-LO (r5LO-wt; at concentrations of >10 µM) |
| --- | --- | --- | --- | --- |
| CCC=C(CCCCCCCC(=O)O)[N+](=O)[O-] [12.9.9, 9-nitro-dodec-9-enoic acid] | 75500 ± 8100 | – | – | – |
| CCCCC=C(CCCCCCCC(=O)O)[N+](=O)[O-] [14.9.9, 9-nitro-tetradec-9-enoic acid] | 17900 ± 1600 | – | – | – |
| CCCCCCC=C(CCCCCCCC(=O)O)[N+](=O)[O-] [16.9.9, 9-nitro-hexadec-9-enoic acid] | 3300 ± 1200 | – | – | – |
| CCCCCCCCCCCCCC=C(CCC(=O)O)[N+](=O)[O-] [18.4.4, 4-nitro-octadec-4-enoic acid] | 400 ± 1200 | failed to induce significant cytotoxic effects | – | – |
| CCCCCCCCCCCCC=C(CCCC(=O)O)[N+](=O)[O-] [18.5.5, 5-nitro-octadec-5-enoic acid] | 400 ± 1100 | failed to induce significant cytotoxic effects | – | – |
| CCCCCCCCCCCC=C(CCCCC(=O)O)[N+](=O)[O-] [18.6.6, 6-nitro-octadec-6-enoic acid] | 1000 ± 1200 | failed to induce significant cytotoxic effects | – | – |
| CCCCCCCCCCCC(=CCCCCC(=O)O)[N+](=O)[O-] [18.6.7, 7-nitro-octadec-6-enoic acid] | 1100 ± 1200 | – | – | – |
| CCCCCCCCC=C(CCCCCCCC(=O)O)[N+](=O)[O-] [18.9.9, 9-nitro-octadec-9-enoic acid] | 1100 ± 1200 | failed to induce significant cytotoxic effects | – | – |
| CCCCCCCC/C=C\CCCCCCCC(=O)O [OA, oleic acid, reference compound] | – | – | n.i. | slight inhibitory effect |

Continued, in another order:

| IC50 (r5LO-wt; [1]) [nM] | SMILES | cytotoxic effects in PMNL (WST-1 viability) (PMNL) | r5LO-wt 5-HETE IC50 (r5LO-wt; [1]) | effect on product formation by recombinant 5-LO (r5LO-wt; at concentrations of >10 µM) |
| --- | --- | --- | --- | --- |
| 600 ± 1300 | CCCCCCCCCCC=C(CCCCCC(=O)O)[N+](=O)[O-] [18.7.7, 7-nitro-octadec-7-enoic acid] | failed to induce significant cytotoxic effects | – | – |
| 2200 ± 1200 | CCCCCCCCCC=C(CCCCCCC(=O)O)[N+](=O)[O-] [18.8.8, 8-nitro-octadec-8-enoic acid] | failed to induce significant cytotoxic effects | – | – |
| 1900 ± 1200 | CCCCCCCCCC(=CCCCCCCC(=O)O)[N+](=O)[O-] [18.8.9, 9-nitro-octadec-8-enoic acid] | failed to induce significant cytotoxic effects | – | – |
| 1600 ± 1300 | CCCCCCCCC(=CCCCCCCCC(=O)O)[N+](=O)[O-] [18.9.10, 10-nitro-octadec-9-enoic acid] | failed to induce significant cytotoxic effects | – | – |
| 1600 ± 1300 | CCCCCCCC=C(CCCCCCCCC(=O)O)[N+](=O)[O-] [18.10.10, 10-nitro-octadec-10-enoic acid] | failed to induce significant cytotoxic effects | – | – |
| 800 ± 1200 | CCCCCCC=C(CCCCCCCCCC(=O)O)[N+](=O)[O-] [18.11.11, 11-nitro-octadec-11-enoic acid] | – | – | – |
| 900 ± 1300 | CCCCCCCCCCC=C(CCCCCCCC(=O)O)[N+](=O)[O-] [20.9.9, 9-nitro-eicos-9-enoic acid] | failed to induce significant cytotoxic effects | – | – |
